Counter-ions that a name gives are not always drawn.
What follows are compounds tested against T1, human hNET (Homo sapiens, UniProt P23975) (assay: Norepinephrine (NE) uptake assay in MDCK-Net6 cells). Conditions: 1 μM test compound, [3H]NE uptake, read-out: % Inhibition @ 1 μM (hNET).
T1 construct: expressed in transfected cells; host or cells: MDCK-Net6 (MDCK cells, stably transfected)
Format: cell-based
Procedure: Cells were plated at 300,000/T75 flask and cells were split twice weekly. […] Cells were plated at 250,000 cells/T75 flask and split twice weekly.
Norepinephrine (NE) Uptake Assay
On day 1, cells were plated at 3,000 cells/well in growth medium and maintained in a cell incubator (37° C., 5% CO2). On day 2, growth medium was replaced with 200 μl of assay buffer (25 mM HEPES; 120 mM NaCl; 5 mM KCl; 2.5 mM CaCl2; 1.2 mM MgSO4; 2 mg/ml glucose (pH 7.4, 37° C.)) containing 0.2 mg/ml ascorbic acid and 10 μM pargyline. Plates containing cells with 200 μl of assay buffer were equilibrated for 10 minutes at 37° C. prior to addition of compounds. A stock solution of desipramine was prepared in DMSO (10 mM) and delivered to triplicate wells containing cells for a final test concentration of 1 μM. Data from these wells were used to define non-specific NE uptake (minimum NE uptake). Test compounds were prepared in DMSO (10 mM) and diluted in assay buffer according to test range (1 to 10,000 nM). Twenty-five microliters of assay buffer (maximum NE uptake) or test compound were added directly to triplicate wells containing cells in 200 μl of assay buffer. The cells in assay buffer with test compounds were incubated for 20 minutes at 37° C. […] The reaction was terminated by decanting the supernatant from the plate. The plates containing cells were washed twice with 200 μl assay buffer (37° C.) to remove free radioligand. The plates were then inverted, left to dry for 2 minutes, then reinverted and air-dried for an additional 10 minutes. The cells were lysed in 25 μl of 0.25 N NaOH solution (4° C.), placed on a shake table and vigorously shaken for 5 minutes. After cell lysis, 75 μl of scintillation cocktail was added to each well and the plates were sealed with film tape. The plates were returned to the shake table and vigorously shaken for a minimum of 10 minutes to ensure adequate partitioning of organic and aqueous solutions. The plates were counted in a Wallac Microbeta counter (PerkinElmer) to collect the raw cpm data.
For each experiment, a data stream of cpm values collected from the Wallac Microbeta counter was downloaded to a Microsoft Excel statistical application program. Calculations of EC50 values were made using the transformed-both-sides logistic dose response program written by Wyeth Biometrics Department.

T1 sequence (P23975 whole entry): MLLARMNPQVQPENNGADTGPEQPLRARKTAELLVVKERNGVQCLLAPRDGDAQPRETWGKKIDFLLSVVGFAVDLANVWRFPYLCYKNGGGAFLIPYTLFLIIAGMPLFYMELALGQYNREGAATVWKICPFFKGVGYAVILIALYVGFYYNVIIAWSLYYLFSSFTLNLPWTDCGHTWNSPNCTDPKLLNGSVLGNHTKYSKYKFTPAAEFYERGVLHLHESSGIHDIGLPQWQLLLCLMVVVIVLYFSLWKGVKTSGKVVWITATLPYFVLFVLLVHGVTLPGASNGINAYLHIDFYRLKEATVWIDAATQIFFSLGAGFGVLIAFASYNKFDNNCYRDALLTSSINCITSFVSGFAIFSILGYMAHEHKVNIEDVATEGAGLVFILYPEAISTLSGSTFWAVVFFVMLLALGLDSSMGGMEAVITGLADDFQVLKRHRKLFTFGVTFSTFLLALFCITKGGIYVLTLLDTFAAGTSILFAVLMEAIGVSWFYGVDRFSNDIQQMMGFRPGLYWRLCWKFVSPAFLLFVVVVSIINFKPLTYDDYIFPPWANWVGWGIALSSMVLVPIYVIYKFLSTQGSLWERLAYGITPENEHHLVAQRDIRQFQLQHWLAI

Point of comparison: `OC1(C(CN2CCNCC2)c2ccc(OCc3ccccc3)c(Cl)c2)CCCCC1` (stereo not shown) [Example 292, 1-{1-[4-(benzyloxy)-3-chlorophenyl]-2-piperazin-1-ylethyl}cyclohexanol dihydrochloride], inhibition at 1 µM 89%. Against it:
- COc1cc(C(CN2CCN(C)CC2)C2(O)CCCCC2)ccc1OCc1ccc2ccccc2c1 (stereo not shown) [Example 445, 1-[1-[3-methoxy-4-(2-naphthylmethoxy)phenyl]-2-(4-methylpiperazin-1-yl)ethyl]cyclohexanol dihydrochloride] — lower, 22%
- CN1CCN(CC(c2cccc(OC(F)(F)F)c2)C2(O)CCC2)CC1 (stereo not shown) [Example 92, 1-{2-(4-methylpiperazin-1-yl)-1-[3-(trifluoromethoxy)phenyl]ethyl}cyclobutanol dihydrochloride] — lower, 13%
- CN1CCN(CC(c2cccc(OCc3ccccc3)c2)C2(O)CCCCC2)CC1 (stereo not shown) [Example 108, 1-[1-[3-(benzyloxy)phenyl]-2-(4-methylpiperazin-1-yl)ethyl]cyclohexanol dihydrochloride] — lower, 0%
- OC1(C(CN2CCNCC2)c2ccc(OC(F)(F)F)cc2)CCCCC1 (stereo not shown) [Example 28, 1-{2-piperazin-1-yl-1-[4-(trifluoromethoxy)phenyl]ethyl}cyclohexanol dihydrochloride] — lower, 80%
- COc1ccc(C(CN2CCN(C)CC2)C2(O)CCCCC2)cc1-c1ccc(C(F)(F)F)cc1 (stereo not shown) [Example 257, 1-[1-[6-methoxy-4′-(trifluoromethyl)-1,1′-biphenyl-3-yl]-2-(4-methylpiperazin-1-yl)ethyl]cyclohexanol dihydrochloride] — lower, 17%
- CN1CCN(CC(c2ccc(OCc3cccc(C(F)(F)F)c3)c(Cl)c2)C2(O)CCCCC2)CC1 (stereo not shown) [Example 424, 1-[1-(3-chloro-4-{[3-(trifluoromethyl)benzyl]oxy}phenyl)-2-(4-methylpiperazin-1-yl)ethyl]cyclohexanol dihydrochloride] — lower, 75%
- C=Cc1cccc(C(CN2CCNCC2)C2(O)CCCCC2)c1 (stereo not shown) [Example 162, 1-[2-piperazin-1-yl-1-(3-vinylphenyl)ethyl]cyclohexanol dihydrochloride] — lower, 78%
- CN1CCN(CC(c2cccc(-c3ccc(Cl)c(Cl)c3)c2)C2(O)CCCCC2)CC1 (stereo not shown) [Example 247, 1-[1-(3′,4′-dichloro-1,1′-biphenyl-3-yl)-2-(4-methylpiperazin-1-yl)ethyl]cyclohexanol dihydrochloride] — lower, 49%
- OC1(C(CN2CCNCC2)c2ccc(CCc3ccccc3)cc2)CCCCC1 (stereo not shown) [Example 409, 1-{1-[4-(2-phenylethyl)phenyl]-2-piperazin-1-ylethyl}cyclohexanol dihydrochloride] — lower, 62%
- OC1(C(CN2CCNCC2)c2ccc(OCc3ccc(Br)cc3F)cc2)CCCCC1 (stereo not shown) [Example 434, 1-(1-{4-[(4-bromo-2-fluorobenzyl)oxy]phenyl}-2-piperazin-1-ylethyl)cyclohexanol] — lower, 34%
- CN1CCN(CC(c2ccc(-c3cc(Cl)cc(Cl)c3)cc2)C2(O)CCC2)CC1 (stereo not shown) [Example 297, 1-[1-(3′,5′-dichloro-1,1′-biphenyl-4-yl)-2-(4-methylpiperazin-1-yl)ethyl]cyclobutanol dihydrochloride] — lower, 4%
- OC1(C(CN2CCNCC2)c2ccccc2-c2ccccc2)CCCCC1 (stereo not shown) [Example 149, 1-[1-(1,1′-biphenyl-2-yl)-2-piperazin-1-ylethyl]cyclohexanol dihydrochloride] — lower, 31%

Same assay, conditions: 10 μM test compound (stated in the cell), [3H]NE uptake

Point of comparison: `CN1CCN(CC(c2ccc(-c3cccc(Cl)c3)cc2)C2(O)CCC2)CC1` (stereo not shown) [Example 294, 1-[1-(3′-chloro-1,1′-biphenyl-4-yl)-2-(4-methylpiperazin-1-yl)ethyl]cyclobutanol dihydrochloride], inhibition at 10 µM 27.2%. Against it:
- OC1(C(CN2CCNCC2)c2ccc(Oc3ccccc3)cc2)CCCCC1 (stereo not shown) [Example 307, 1-[1-(4-phenoxyphenyl)-2-piperazin-1-ylethyl]cyclohexanol dihydrochloride] — higher, 44.5%

Same assay, conditions: [3H]NE uptake, test range 1 to 10,000 nM

For `C=Cc1cccc(C(CN2CCNCC2)C2(O)CCCCC2)c1` (stereo not shown) [Example 162, 1-[2-piperazin-1-yl-1-(3-vinylphenyl)ethyl]cyclohexanol dihydrochloride], the EC50 was 410 nM.

Reference: patent US7550456B2, “Substituted aryl cycloalkanoyl derivatives and methods of their use” (Wyeth, priority 2003, dated 2009)
